From ChEMBL document CHEMBL5528020, “Small molecular CD73 inhibitors: Recent progress and future perspectives” (Eur J Med Chem, 2024)

Target: 5'-nucleotidase (Homo sapiens, UniProt P21589)
Assay: Inhibition of human recombinant Ecto-5'-nucleotidase

Sequence of 5'-nucleotidase (P21589 whole entry): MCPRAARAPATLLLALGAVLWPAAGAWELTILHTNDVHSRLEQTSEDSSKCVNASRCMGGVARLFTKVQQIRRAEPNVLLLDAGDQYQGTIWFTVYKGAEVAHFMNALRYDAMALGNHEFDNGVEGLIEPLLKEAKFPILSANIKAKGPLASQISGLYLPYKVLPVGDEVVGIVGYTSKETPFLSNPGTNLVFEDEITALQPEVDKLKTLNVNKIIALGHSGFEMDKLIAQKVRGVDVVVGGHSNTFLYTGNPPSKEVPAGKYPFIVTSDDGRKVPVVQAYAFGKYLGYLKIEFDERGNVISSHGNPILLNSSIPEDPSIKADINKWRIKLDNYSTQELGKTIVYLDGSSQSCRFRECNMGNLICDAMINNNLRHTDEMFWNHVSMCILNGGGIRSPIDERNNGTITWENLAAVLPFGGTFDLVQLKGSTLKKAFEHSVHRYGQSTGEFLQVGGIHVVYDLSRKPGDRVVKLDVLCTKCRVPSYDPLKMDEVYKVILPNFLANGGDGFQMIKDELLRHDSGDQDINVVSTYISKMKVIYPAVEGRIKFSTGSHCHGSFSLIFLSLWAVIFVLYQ

Row | IC50 [nM] | Structure (SMILES)
1 | > 0.1 | N#Cc1ccc(-n2nccc2-c2ccc3nnn(-c4cccc(O)c4)c3c2)cc1
2 | > 0.1 | O=S(=O)(c1ccc(-n2nccc2-c2ccc3nnn(-c4ccc5cn[nH]c5c4)c3c2)cc1Br)C(F)(F)F
3 | > 0.1 | O=S(=O)(c1ccc(-c2nsnc2-c2cc3c(-c4cccc(O)c4)nnc-3co2)cc1Br)C(F)(F)F
4 | > 0.1 | Cc1nc(-c2ccnn2-c2ccc(C#N)cc2)nc2cc(-c3ccc4cn[nH]c4c3)cnc12
5 | > 0.1 | O=S(=O)(c1ccc(-n2nccc2-c2ccc3nnn(-c4ccc5cn[nH]c5c4)c3c2)c(Br)c1)C(F)(F)F
6 | > 0.1 | CC1NC(n2nnc3ccc(-c4ccnn4-c4ccc(C#N)cc4)cc32)CCS1 (stereo not drawn)
7 | > 0.1 | O=S(=O)(c1ccc(-c2nn[nH]c2-c2cc3c(-c4cccc(O)c4)nnc-3co2)cc1Br)C(F)(F)F
8 | > 0.1 | N#Cc1ccc(-c2ncsc2-c2cc3c(-c4ccc5cn[nH]c5c4)nnc-3co2)cc1
